According to ChEMBL document CHEMBL6134817, “Novel gut-restricted bivalent agonists targeting mucosal 5-HT4R: Design, synthesis, and biological evaluation” (Eur J Med Chem, 2025):

Experiments:
[1] = target: T1, 5-hydroxytryptamine receptor 4 (Homo sapiens, UniProt Q13639); experiment: Agonist activity at full-length human 5-HT4R stably expressed in HEK293 cells assessed as increase in intracellular cAMP level incubated for 30 mins under dark condition by reporter gene assay; assay type: functional, cell-based
[2] = target: T1, 5-hydroxytryptamine receptor 4; experiment: Agonist activity at full-length human 5-HT4R stably expressed in HEK293 cells assessed as increase in intracellular cAMP level incubated for 30 mins under dark condition by reporter gene assay relative to control; assay type: functional, cell-based; conditions: filed as agonist

T1 sequence (Q13639 whole entry): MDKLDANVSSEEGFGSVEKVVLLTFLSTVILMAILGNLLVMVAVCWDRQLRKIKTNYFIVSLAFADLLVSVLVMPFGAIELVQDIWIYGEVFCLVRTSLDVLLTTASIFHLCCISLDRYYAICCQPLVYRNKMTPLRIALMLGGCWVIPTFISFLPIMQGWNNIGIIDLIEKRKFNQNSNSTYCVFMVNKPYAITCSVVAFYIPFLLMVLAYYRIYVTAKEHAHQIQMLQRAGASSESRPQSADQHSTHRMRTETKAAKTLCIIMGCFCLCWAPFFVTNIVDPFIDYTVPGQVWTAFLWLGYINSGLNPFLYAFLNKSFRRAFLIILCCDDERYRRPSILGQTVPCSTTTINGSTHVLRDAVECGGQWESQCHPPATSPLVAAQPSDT

Nc1c(Cl)cc(C(=O)NC2CCN(CCC(=O)NCCOCCOCCNC(=O)NCCOCCOCCNC(=O)CCN3CCC(NC(=O)c4cc(Cl)c(N)c5c4OCC5)CC3)CC2)c2c1CCO2
EC50 [1]: 0.95 nM
Efficacy [2]: 103%

Nc1c(Cl)cc(C(=O)NC2CCN(CCC(=O)NCCOCCOCCNC(=O)c3ccc(C(=O)NCCOCCOCCNC(=O)CCN4CCC(NC(=O)c5cc(Cl)c(N)c6c5OCC6)CC4)cc3)CC2)c2c1CCO2
EC50 [1]: 5.67 nM
Efficacy [2]: 110%

Nc1c(Cl)cc(C(=O)NC2CCN(CCCCCC(=O)NCCOCCOCCNC(=O)NCCCCNC(=O)NCCOCCOCCNC(=O)CCCCCN3CCC(NC(=O)c4cc(Cl)c(N)c5c4OCC5)CC3)CC2)c2c1CCO2
EC50 [1]: 3.81 nM
Efficacy [2]: 106%

Nc1c(Cl)cc(C(=O)NC2CCN(CCC(=O)NCCOCCOCCNC(=O)N3CC4(C3)CN(C(=O)NCCOCCOCCNC(=O)CCN3CCC(NC(=O)c5cc(Cl)c(N)c6c5OCC6)CC3)C4)CC2)c2c1CCO2
EC50 [1]: 11.4 nM
Efficacy [2]: 122%

Nc1c(Cl)cc(C(=O)NC2CCN(CCC(=O)NCCOCCOCCNC(=O)C3(C(=O)NCCOCCOCCNC(=O)CCN4CCC(NC(=O)c5cc(Cl)c(N)c6c5OCC6)CC4)CC3)CC2)c2c1CCO2
EC50 [1]: 2.5 nM
Efficacy [2]: 128%

Nc1c(Cl)cc(C(=O)NC2CCN(CCC(=O)NCCOCCOCCNC(=O)C3(C(=O)NCCOCCOCCNC(=O)CCN4CCC(NC(=O)c5cc(Cl)c(N)c6c5OCC6)CC4)CCC3)CC2)c2c1CCO2
EC50 [1]: 8.05 nM
Efficacy [2]: 122%

Nc1c(Cl)cc(C(=O)NC2CCN(CCC(=O)NCCOCCOCCNC(=O)N[C@H]3CC[C@H](NC(=O)NCCOCCOCCNC(=O)CCN4CCC(NC(=O)c5cc(Cl)c(N)c6c5OCC6)CC4)CC3)CC2)c2c1CCO2
EC50 [1]: 6.82 nM
Efficacy [2]: 122%

Nc1c(Cl)cc(C(=O)NC2CCN(CCC(=O)NCCOCCOCCOCCNC(=O)NCCCCNC(=O)NCCOCCOCCOCCNC(=O)CCN3CCC(NC(=O)c4cc(Cl)c(N)c5c4OCC5)CC3)CC2)c2c1CCO2
EC50 [1]: 6.71 nM
Efficacy [2]: 125%

Nc1c(Cl)cc(C(=O)NC2CCN(CCC(=O)NCCOCCOCCOCCNC(=O)NCCOCCOCCOCCNC(=O)CCN3CCC(NC(=O)c4cc(Cl)c(N)c5c4OCC5)CC3)CC2)c2c1CCO2
EC50 [1]: 1.07 nM
Efficacy [2]: 119%

Nc1c(Cl)cc(C(=O)NC2CCN(CCC(=O)NCCCCCCCCNC(=O)NCCCCCCNC(=O)NCCCCCCCCNC(=O)CCN3CCC(NC(=O)c4cc(Cl)c(N)c5c4OCC5)CC3)CC2)c2c1CCO2
EC50 [1]: 17.6 nM
Efficacy [2]: 90.9%

Nc1c(Cl)cc(C(=O)NC2CCN(CCC(=O)NCCOCCOCCNC(=O)C3(C(=O)NCCOCCOCCNC(=O)CCN4CCC(NC(=O)c5cc(Cl)c(N)c6c5OCC6)CC4)CCCC3)CC2)c2c1CCO2
EC50 [1]: 2.99 nM
Efficacy [2]: 130%

Nc1c(Cl)cc(C(=O)NC2CCN(CCC(=O)NCCCCCCCCNC(=O)NCCNC(=O)NCCCCCCCCNC(=O)CCN3CCC(NC(=O)c4cc(Cl)c(N)c5c4OCC5)CC3)CC2)c2c1CCO2
EC50 [1]: 5.88 nM
Efficacy [2]: 125%

Nc1c(Cl)cc(C(=O)NC2CCN(CCC(=O)NCCOCCOCCNC(=O)/C=C/C(=O)NCCOCCOCCNC(=O)CCN3CCC(NC(=O)c4cc(Cl)c(N)c5c4OCC5)CC3)CC2)c2c1CCO2
EC50 [1]: 6.69 nM
Efficacy [2]: 98%

CC(C)(C(=O)NCCOCCOCCNC(=O)CCN1CCC(NC(=O)c2cc(Cl)c(N)c3c2OCC3)CC1)C(=O)NCCOCCOCCNC(=O)CCN1CCC(NC(=O)c2cc(Cl)c(N)c3c2OCC3)CC1
EC50 [1]: 5.46 nM
Efficacy [2]: 129%

Nc1c(Cl)cc(C(=O)NCCC2CCN(CCC(=O)NCCOCCOCCNC(=O)NCCCCNC(=O)NCCOCCOCCNC(=O)CCN3CCC(CCNC(=O)c4cc(Cl)c(N)c5c4OCC5)CC3)CC2)c2c1CCO2
EC50 [1]: 81.4 nM
Efficacy [2]: 102%

CC(C)n1nc(-c2nnc(C3CCN(CCC(=O)NCCOCCOCCNC(=O)NCCCCNC(=O)NCCOCCOCCNC(=O)CCN4CCC(c5nnc(-c6nn(C(C)C)c7ccccc67)o5)CC4)CC3)o2)c2ccccc21
EC50 [1]: > 10000 nM
Efficacy [2]: 47.8%

Nc1c(Cl)cc(C(=O)NC2CCN(CCC(=O)NCCOCCOCCNC(=O)N[C@H]3CC[C@@H](NC(=O)NCCOCCOCCNC(=O)CCN4CCC(NC(=O)c5cc(Cl)c(N)c6c5OCC6)CC4)CC3)CC2)c2c1CCO2
EC50 [1]: 2.08 nM
Efficacy [2]: 108%
